The target of experiment [1] is human recombinant 5-HT2C receptor (Homo sapiens (Human), UniProt P28335). The experiment can be described thus: 5-HT2C receptor binding inhibition test ([3H]-Mesulergine). The conditions noted are these: Jump-In HEK cell membrane, 37° C. 2 hours. As to the method:
Test Example 2: 5-HT2C Receptor Binding Inhibition Test
(§1) (Each Experimental Condition)
Cell membrane: 0.5 μg of Jump-In HEK cell membrane (expressing human recombinant 5-HT2C receptor) per well
(§2) Assay buffer: Tris-HCl 50 mmol/L (pH 7.4) containing NaCl 120 mmol/L, MgCl2·6H2O 1 mmol/L, KCl 5 mmol/L, 0.1% BSA and CaCl2 2 mmol/L
Radioactive ligand: [^3H]-Mesulergine with a final concentration of around Kd value calculated by the following method
Non-specific ligand: Serotonin HCl with a final concentration of […]
(§3) The Kd value is calculated when the lot of cell membrane is changed. In advance, 0.5 μL of a 1 mmol/L compound for non-specific binding calculation dissolved in DMSO or DMSO is dispensed into a microplate, and the cell membrane is diluted with an Assay buffer. The radioactive ligand solution is serially diluted and the count is confirmed with a liquid scintillator. Assay buffer containing diluted cell membrane is dispensed into a microplate at 50 μL/well. Then, the radioactive ligand solution is dispensed into a microplate at 50 μL/well, and the plate is sealed. It is allowed to stand at 37° C. for 2 hours. During this period, 50 mmol/L Tris-HCl (pH 7.4) is dispensed into a GF/B UniFilter plate at 50 μL/well and allowed to stand at 4° C. for 1 hour or longer. After that, filtration is performed with Cell harvester (PerkinElmer). The radioactive ligand solution is dispensed into an empty well of the GF/B UniFilter plate at 10 μL/well. After the GF/B UniFilter plate is dried at room temperature, MicroScinti 20 is dispensed into the GF/B UniFilter plate at 50 μL/well to seal the plate. The GF/B UniFilter plate is allowed to stand overnight at room temperature. The radioactivity of [^3H]-Mesulergine bound to the 5-HT2C receptor is measured using Microbeta2 (PerkinElmer) at a measurement time of 1 min/well. The Saturation curve is drawn from the measured value, and the Kd value is calculated from the slope of the Scatchard Plot.
(§4) (Binding Test of the Compound According to the Present Invention)
In advance, 0.5 μL of the compound solution dissolved in DMSO is dispensed into a microplate, and the cell membrane and the hot ligand are diluted with Assay buffer, respectively. Then, the Assay buffer containing the diluted cell membrane is dispensed into a microplate at 50 μL/well. Then, the radioactive ligand solution is dispensed into a microplate at 50 μL/well, and the plate is sealed. Then, it is allowed to stand at 37° C. for 2 hours. During this period, 50 mmol/L Tris-HCl (pH 7.4) is dispensed into a GF/B UniFilter plate at 50 μL/well and allowed to stand at 4° C. for 1 hour or longer. After that, filtration is performed with Cell harvester (PerkinElmer). After the GF/B UniFilter plate is dried at room temperature, MicroScinti 20 is dispensed into the GF/B UniFilter plate at 50 μL/well, and the plate is sealed. The GF/B UniFilter plate is allowed to stand overnight at room temperature. The radioactivity of [^3H]-Mesulergine bound to the 5-HT2C receptor is measured using Microbeta2 (PerkinElmer) at a measurement time of 1 min/well. The non-specific binding is calculated from the radioactivity of […] in the presence of 500 μmol/L Serotonin HCl which is the unlabeled ligand, and the total binding is calculated from the radioactivity of [^3H]-Mesulergine in the absence of the compound according to the present invention (Vehicle). Finally, the Ki value is calculated from the dose-response curve.
(§5) (The binding activity of the compound according to the present invention is calculated from the following binding inhibition rate (%).)
(§6) [formula] • a; mean cpm of non-specific binding • b; average cpm of total binding • c; cpm in the presence of the test compound

In experiment [2] the target is human recombinant 5-HT2A receptor (Homo sapiens (Human), UniProt P28223). The experiment can be described thus: 5-HT2A receptor binding inhibition test ([3H]-Ketanserin). The following applies: Jump-In HEK cell membrane, 25° C. 1.5 hours. As to the method: Test Example 1: 5-HT2A Receptor Binding Inhibition Test
Chain of human recombinant 5-HT2A receptor (P28223 whole entry): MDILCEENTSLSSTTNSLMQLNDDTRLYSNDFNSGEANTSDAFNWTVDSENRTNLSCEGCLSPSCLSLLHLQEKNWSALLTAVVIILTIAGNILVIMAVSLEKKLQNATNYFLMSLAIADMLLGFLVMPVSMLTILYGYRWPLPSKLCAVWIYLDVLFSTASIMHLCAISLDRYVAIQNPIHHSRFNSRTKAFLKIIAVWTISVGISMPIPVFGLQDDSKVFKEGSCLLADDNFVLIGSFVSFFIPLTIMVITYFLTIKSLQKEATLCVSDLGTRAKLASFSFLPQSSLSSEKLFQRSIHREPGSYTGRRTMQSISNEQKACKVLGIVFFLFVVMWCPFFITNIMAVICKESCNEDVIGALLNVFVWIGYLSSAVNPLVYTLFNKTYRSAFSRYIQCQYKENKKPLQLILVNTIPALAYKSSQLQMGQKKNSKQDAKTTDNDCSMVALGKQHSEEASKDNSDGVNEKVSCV
as §1
Cell membrane: 15 μg of Jump-In HEK cell membrane (expressing human recombinant 5-HT2A receptor) per well
as §2
Radioactive ligand: [^3H]-Ketanserin with a final concentration of around Kd value calculated by the following method
Non-specific ligand: Serotonin HCl with a final concentration of 500 μmol/L
as §3, with “at room temperature (25° C.)” for “at 37° C.”, “for 1.5” for “for 2”, “of [^3H]-Ketanserin” for “of [^3H]-Mesulergine”, “the 5-HT2A” for “the 5-HT2C”
as §4
In advance, 0.5 μL of the compound solution dissolved in DMSO is dispensed into a microplate, and the cell membrane and the hot ligand are diluted with Assay buffer, respectively. Then, the Assay buffer containing the diluted cell membrane is dispensed into a microplate at 50 μL/well. Then, the radioactive ligand solution is dispensed into a microplate at 50 μL/well, and the plate is sealed. Then, it is allowed to stand at room temperature (25° C.) for 1.5 hours. During this period, 50 mmol/L Tris-HCl (pH 7.4) is dispensed into a GF/B UniFilter plate at 50 μL/well and allowed to stand at 4° C. for 1 hour or longer. After that, filtration is performed with Cell harvester (PerkinElmer). After the GF/B UniFilter plate is dried at room temperature, MicroScinti 20 is dispensed into the GF/B UniFilter plate at 50 μL/well to seal the plate. The GF/B UniFilter plate is allowed to stand overnight at room temperature. The radioactivity of [^3H]-Ketanserin bound to the 5-HT2A receptor is measured using Microbeta2 (PerkinElmer) at a measurement time of 1 min/well. The non-specific binding is calculated from the radioactivity of [^3H]-Ketanserin in the presence of 500 μmol/L Serotonin HCl which is the unlabeled ligand, and the total binding is calculated from the radioactivity of [^3H]-Ketanserin in the absence of the compound according to the present invention (Vehicle). Finally, the Ki value is calculated from the dose-response curve.
as §5, §6

Where [3] appears, read: read-out: human serotonin 5-HT2C receptor binding activity Ki.
The mark [4] stands for this setting: read-out: human serotonin 5-HT2A receptor binding activity Ki.

Molecules are shown by their SMILES. Like-named read-outs stand apart in the source and are kept apart here. Some results are limits rather than exact numbers.

Usually Ki stands for a measure of affinity in units of concentration, obtained from inhibition or displacement.

Chain of human recombinant 5-HT2C receptor (P28335 33-458): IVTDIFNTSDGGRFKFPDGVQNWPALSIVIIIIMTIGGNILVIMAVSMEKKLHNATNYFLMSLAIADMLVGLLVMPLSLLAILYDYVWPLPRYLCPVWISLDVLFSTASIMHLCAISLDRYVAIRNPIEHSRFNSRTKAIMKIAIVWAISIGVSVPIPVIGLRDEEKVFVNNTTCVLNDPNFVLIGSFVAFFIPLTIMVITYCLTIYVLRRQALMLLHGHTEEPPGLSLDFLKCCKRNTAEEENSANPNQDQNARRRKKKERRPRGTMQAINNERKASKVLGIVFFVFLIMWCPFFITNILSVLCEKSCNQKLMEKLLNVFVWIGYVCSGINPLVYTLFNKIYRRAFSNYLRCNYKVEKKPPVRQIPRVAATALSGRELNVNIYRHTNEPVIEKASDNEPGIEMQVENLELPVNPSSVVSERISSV

For the compound `CCCc1ccc(CN(Cc2coc(C)n2)C2=NOC3(CCN(C)CC3)N2)cc1` [Compound I-087], the Ki in experiment [1] (setting [3]) came to 0.787 nM; in experiment [2] (setting [4]), 1.11 nM.
In the case of `CC(C)COc1ccc(CN(Cc2ccc(F)cn2)C2=NC(=O)C3(CCN(C)CC34CC4)N2)cc1` (racemic) [Compound I-042], the Ki in experiment [1] (read-out: h-5-HT2C Ki) and in experiment [2] (read-out: h-5-HT2A Ki) was 10 to 100 nM throughout.
As to `CCCOc1ccc(CN(Cc2ccn(C)n2)C2=NOC3(CCN(C)CC3)N2)cc1` [Compound I-014], the Ki in experiment [1] (read-out: h-5-HT2C Ki) was 10 to 100 nM; in experiment [2] (read-out: h-5-HT2A Ki), under 10 nM.
The corresponding values for `Cc1ccc(CN(Cc2ccc(OCC(C)C)cc2)C2=NC(=O)C3(CCN(C)CC3)N2)nc1` [Compound I-062] are 10 to 100 nM and under 10 nM.
For `Cc1ccc2cc(CN(Cc3coc(C)n3)C3=NOC4(CCN(C)CC4)N3)sc2c1` [Compound I-101] the same measures were under 10 nM and under 10 nM.
The corresponding values for `Cc1nc(CN(Cc2nc3ccccc3s2)C2=NOC3(CCN(C)CC3)N2)co1` [Compound I-098] are 10 to 100 nM and under 10 nM.
For `Cc1cc(CN2C(Cc3ccc(OC(F)F)cc3)=NOC23CCN(C)CC32CC2)nn1C` (racemic) [Compound I-035], the inhibition constant (Ki) in experiment [1] (read-out: h-5-HT2C Ki) and in experiment [2] (read-out: h-5-HT2A Ki) was under 10 nM each time.
As for `CCCOc1ccc(CC2=NOC3(CCN(C)CC3)N2Cc2ccn(C)n2)cc1` [Compound I-025], the Ki in experiment [1] (read-out: h-5-HT2C Ki) and in experiment [2] (read-out: h-5-HT2A Ki) was 10 to 100 nM in each case.
Take `CCCOc1ccc(CC2=NOC3(CCN(C)CC3)N2Cc2ccc(F)cn2)cc1` [Compound I-024]: the Ki in experiment [1] (read-out: h-5-HT2C Ki) was 10 to 100 nM; in experiment [2] (read-out: h-5-HT2A Ki), under 10 nM.
For `Cc1nc(CN(Cc2ccc(OCC(C)C)c(F)c2)C2=NOC3(CCN(C)CC3)N2)co1` [Compound I-127] the same measures were under 10 nM and under 10 nM.
The corresponding values for `CCCc1ccc(CN(Cc2coc(C)n2)C2=NOC3(CCN(C)CC3)N2)cc1F` [Compound I-110] are under 10 nM and under 10 nM.
Regarding `Cc1nc(CN(Cc2ccc3c(c2)nnn3C)C2=NOC3(CCN(C)CC3)N2)co1` [Compound I-093], the Ki in experiment [1] (read-out: h-5-HT2C Ki) and in experiment [2] (read-out: h-5-HT2A Ki) was 100 to 500 nM each time.
As for `Cc1nc(CN(Cc2ccc(OCC(C)C)cc2)C2=NOC3(CCN(C)CC3)N2)cs1` [Compound I-017], the Ki in experiment [1] (read-out: h-5-HT2C Ki) and in experiment [2] (read-out: h-5-HT2A Ki) was under 10 nM in each case.
`CCCOc1ccc(CC2=NOC3(CCN(C)CC34CC4)N2Cc2ccn(C)n2)cc1` (centres unmarked) [Compound I-027]: the Ki in experiment [1] (setting [3]) came out at 2.21 nM; in experiment [2] (setting [4]) it was 1.89 nM.
Turning to `Cc1nc(CN(Cc2cccs2)C2=NOC3(CCN(C)CC3)N2)co1` [Compound I-069], the Ki in experiment [1] (read-out: h-5-HT2C Ki) was under 10 nM; in experiment [2] (read-out: h-5-HT2A Ki), 10 to 100 nM.
For `Cc1cc(CN(Cc2ccc(OCC(C)C)cc2)C2=NOC3(CCN(C)CC3)N2)on1` [Compound I-076] the same measures were 100 to 500 nM and 10 to 100 nM.
The corresponding values for `CN1CCC2(CC1)NC(N(Cc1coc(C3CC3)n1)Cc1ccc(OCC(F)(F)F)cc1F)=NO2` [Compound I-108] are under 10 nM and under 10 nM.
As to `Cc1nc(CN(Cc2ccc(OCC(C)C)cc2)C2=NC(=O)C3(CCN(C)CC3)N2)cs1` [Compound I-057], the Ki in experiment [1] (setting [3]) worked out at 2.19 nM; in experiment [2] (setting [4]), 5.2 nM.
Consider `CC(C)COc1ccc(CN(Cc2ccc(F)cc2)C2=NOC3(CCN(C)CC3)N2)cc1` [Compound I-055], for which the figures for the inhibitory constant (Ki) in experiment [1] (read-out: h-5-HT2C Ki) and in experiment [2] (read-out: h-5-HT2A Ki) were 10 to 100 nM and under 10 nM, respectively.
The corresponding values for `CCCOc1ccc(CC2=NOC3(CCN(C)CC34CC4)N2Cc2ccn(C)n2)cc1` (single isomer, unassigned) [Compound I-044] are under 10 nM and under 10 nM.
For `Cc1nc(CN(Cc2ccc(OCC(C)C)cc2)C2=NO[C@@]3(CCNC[C@H]3F)N2)co1` (racemic) [Compound I-085] the same measures were under 10 nM and under 10 nM.
The corresponding values for `CC(C)COc1ccc(CN(Cc2ccco2)C2=NC(=O)C3(CCN(C)CC3)N2)cc1` [Compound I-063] are 10 to 100 nM and under 10 nM.
Consider `CCOCc1ccc(CN(Cc2coc(C)n2)C2=NOC3(CCN(C)CC3)N2)cc1` [Compound I-124], for which the Ki in experiment [1] (read-out: h-5-HT2C Ki) and in experiment [2] (read-out: h-5-HT2A Ki) was 10 to 100 nM in each case.
As for `CC(C)COc1ccc(CN=C2NC(=O)CC3(CCN(C)CC3)N2Cc2ccc(F)cc2)cc1` [Compound I-005], the Ki in experiment [1] (setting [3]) was determined as 219 nM; in experiment [2] (setting [4]), 85.3 nM.
The corresponding values for `CC(C)COc1ccc(CN(Cc2ccn(C)n2)C2=NC(=O)C3(CCN(C)CC3)N2)cc1` [Compound I-033] are 19 nM and 10.1 nM.
For the compound `CC(C)COc1ccc(CN(C2=NOC3(CCN(C)CC3)N2)C(C)c2ccc(F)cc2)cc1` (single isomer, unassigned) [Compound I-074], the Ki in experiment [1] (read-out: h-5-HT2C Ki) and in experiment [2] (read-out: h-5-HT2A Ki) was 100 to 500 nM throughout.
`CCCCOc1ccc(CN(Cc2coc(C)n2)C2=NOC3(CCN(C)CC3)N2)c(Br)c1` [Compound I-092]: the inhibition constant Ki in experiment [1] (read-out: h-5-HT2C Ki) and in experiment [2] (read-out: h-5-HT2A Ki) was under 10 nM each time.
On to `Cc1nc(CN(Cc2ccsc2)C2=NOC3(CCN(C)CC3)N2)co1` [Compound I-073], for which the Ki in experiment [1] (read-out: h-5-HT2C Ki) was under 10 nM; in experiment [2] (read-out: h-5-HT2A Ki), 10 to 100 nM.

The values above are taken from patent publication US20250026765A1, “SPIROHETEROCYCLE DERIVATIVE HAVING SEROTONIN RECEPTOR BINDING ACTIVITY” (Shionogi & Co., Ltd., priority 2021, published 2025).
